Where a name gives a salt, the structure may show the parent alone.
Legend:
[1] = tested on: ECC-1 uterine cancer (endometrial cancer); test: anti-tumor activity, ECC-1 xenograft in nude mice; type: in vivo, human; details: ECC-1 model, i.v. day 0 and day 7, start tumor volume 160 mm^3, log RTV, day 4-day 19
Excerpt: (§1) Cancer cell lines were purchased from the Riken Bioresource Center (RBC, Japan (Ibaraki)), American Type Culture Collection (ATCC, USA (Manassas, Va.)), Deutsche Sammlung von Mikroorganismen and Zellkulturen GmbH (German Collection of Microorganisms and Cell Cultures GmbH: DSMZ, Germany (Braunschweig)), Health Science Research Resource Bank (HSRRB, Japan (Osaka)), and the DS Pharma Biomedical Co., Ltd. (DS-Pharma, Japan (Osaka)), and were kindly donated by the Kyushu Cancer Center, Kagoshima University, and the Cell Resource Center for Biomedical Research of the Institute of Development, Aging, and Cancer of Tohoku University.
(§2) In the tables, the cancer cell lines to which “*” is added in the “acclimation” column were obtained from grown tumors which were formed by subcutaneously inoculating each cancer cell line to a mouse in advance.
(§3) On the initial day of inoculation, the cancer cells were harvested by trypsinization and were washed and suspended using the particular medium. Some of the harvested cancer cells were then mixed with GelTrex (Gibco, #12760-021 or A14132-02) at 1:1. […]
(§4) The tumor size was measured over time with a caliper, and the tumor volume was determined based on the following calculation formula. tumor volume (mm^3)=length (mm)×square of width (mm^2)×½ […]

[2] = tested on: BXPC-3 pancreatic cancer; test: anti-tumor activity, BXPC-3 xenograft in nude mice; type: in vivo, human; details: BXPC-3 model, i.v. day 0 and day 7, start tumor volume 120 mm^3, log RTV, day 7-day 21
Excerpt: as §1, §2, §3, §4

[3] = tested on: SK-LMS-1 sarcoma (leiomyosarcoma); test: anti-tumor activity, SK-LMS-1 xenograft in nude mice; type: in vivo, human; details: SK-LMS-1 model, i.v. day 0 and day 7, start tumor volume 290 mm^3, log RTV, day 2-day 7
Excerpt: as §1, §2, §3, §4

[4] = tested on: K1 thyroid cancer; test: anti-tumor activity, K1 xenograft in nude mice; type: in vivo, human; details: K1 model, i.v. day 0 and day 7, start tumor volume 390 mm^3, log RTV, day 3-day 17
Excerpt: as §1, §2, §3, §4

[5] = tested on: SK-UT-1 sarcoma (leiomyosarcoma); test: anti-tumor activity, SK-UT-1 xenograft in nude mice; type: in vivo, human; details: day 3-day 10
Excerpt: as §1, §2, §3, §4

[6] = tested on: AsPC-1 pancreatic cancer; test: anti-tumor activity, AsPC-1 xenograft in nude mice; type: in vivo, human; details: AsPC-1 model, i.v. day 0 and day 7, start tumor volume 380 mm^3, log RTV, day 3-day 35
Excerpt: as §1, §2, §3, §4

[7] = tested on: UM-UC-3 urothelial cancer (bladder cancer); test: anti-tumor activity, UM-UC-3 xenograft in nude mice; type: in vivo, human
Excerpt: as §1, §2, §3, §4

[8] = tested on: PLC/PRF/5 liver cancer (hepatocellular carcinoma); test: anti-tumor activity, PLC/PRF/5 xenograft in nude mice; type: in vivo, human; details: PLC/PRF/5 model, i.v. day 0 and day 7, start tumor volume 180 mm^3, log RTV, day 4-day 18
Excerpt: as §1, §2, §3, §4

[9] = tested on: MES-SA sarcoma (leiomyosarcoma); test: anti-tumor activity, MES-SA xenograft in nude mice; type: in vivo, human
Excerpt: as §1, §2, §3, §4

[10] = tested on: MFE-296 uterine cancer (endometrial cancer); test: anti-tumor activity, MFE-296 xenograft in nude mice; type: in vivo, human; details: MFE-296 model, i.v. day 0 and day 7, start tumor volume 200 mm^3, log RTV, day 4-day 14
Excerpt: as §1, §2, §3, §4

[11] = tested on: KP-1 pancreatic cancer; test: anti-tumor activity, KP-1 xenograft in nude mice; type: in vivo, human; details: KP-1 model, i.v. day 0 and day 7, start tumor volume 200 mm^3, log RTV, day 3-day 14
Excerpt: as §1, §2
as §3, with “1:1. Using a 26-gauge syringe needle, these cells were inoculated at a volume of 0.1 mL into the vicinity of the right axillary region of mice (BALB/c nu/nu).” for “1:1.”

[12] = tested on: HEC-151 uterine cancer (endometrial cancer); test: anti-tumor activity, HEC-151 xenograft in nude mice; type: in vivo, human; details: HEC-151 model, i.v. day 0 and day 7, start tumor volume 220 mm^3, log RTV, day 3-day 14
Excerpt: as §1, §2, §3, §4

[13] = tested on: U251MG brain tumor (glioblastoma); test: anti-tumor activity, U251MG xenograft in nude mice; type: in vivo, human; details: U251MG model, i.v. day 0 and day 7, start tumor volume 150 mm^3, log RTV, day 5-day 23
Excerpt: as §1, §2
as §3, with “1:1. Using a 26-gauge syringe needle, these cells were inoculated at a volume of 0.1 mL into the vicinity of the right axillary region of mice (BALB/c nu/nu).” for “1:1.”

[14] = tested on: KB (HeLa) uterine cancer (cervical cancer); test: anti-tumor activity, KB (HeLa) xenograft in nude mice; type: in vivo, human; details: KB (HeLa) model, i.v. day 0 and day 7, start tumor volume 150 mm^3, log RTV, day 7-day 14
Excerpt: as §1, §2
The KB cells indicated as a cancer cell line in Table 2 were originally thought to be derived from an epithelial cancer. […] In addition, ITS-G supplement (Wako Pure Chemical Industries, Ltd., #090-06741) was used as the ITS. […]
as §4

[15] = tested on: A673 sarcoma (Ewing sarcoma); test: anti-tumor activity, A673 xenograft in nude mice; type: in vivo, human; details: A673 model, i.v. day 0 and day 7, start tumor volume 220 mm^3, log RTV, day 4-day 18
Excerpt: as §1, §2, §3, §4

[16] = tested on: OMC9 sarcoma (leiomyosarcoma); test: anti-tumor activity, OMC9 xenograft in nude mice; type: in vivo, human; details: OMC9 model, BALB/c nu/nu mice, i.v. day 0 and day 7, start tumor volume 150 mm^3, log RTV, day 7-day 35
Excerpt: as §1, §2, §3, §4

[17] = tested on: MFE-280 uterine cancer (endometrial cancer); test: anti-tumor activity, MFE-280 xenograft in nude mice; type: in vivo, human; details: MFE-280 model, i.v. day 0 and day 7, start tumor volume 200 mm^3, log RTV, day 4-day 14
Excerpt: as §1, §2, §3, §4

[18] = tested on: Hs746T stomach cancer; test: anti-tumor activity, Hs746T xenograft in nude mice; type: in vivo, human; details: Hs746T model, i.v. day 0 and day 7, start tumor volume 180 mm^3, log RTV, day 4-day 11
Excerpt: as §1, §2, §3, §4

[19] = tested on: human xenograft models; test: anti-tumor activity, summary over the 18 human xenograft models; type: in vivo; details: in all 18 human xenograft models, RM-ANOVA using log RTV, P<0.05
Excerpt: as §1, §2, §3, §4

Question: For `C=C1C[C@@H]2CC[C@@]34C[C@H]5O[C@H]6[C@@H](O3)[C@H]3O[C@H](CC[C@@H]3O[C@H]6[C@H]5O4)CC(=O)C[C@@H]3[C@@H](OC)[C@@H](C[C@H](O)CN)O[C@H]3C[C@H]3O[C@@H](CC[C@@H]1O2)C[C@@H](C)C3=C` [E7389, eribulin mesylate], which “RM-ANOVA E7389 vs vehicle” value [1] is on record?
Answer: Its value is “Yes 1”.

Question: What about the “RM-ANOVA E7389 vs vehicle” value [2] of the same molecule?
Answer: Its value is “Yes 1”.

Question: What about the “RM-ANOVA E7389 vs vehicle” value [3] of the same molecule?
Answer: The value was “Yes 1”.

Question: What about the “RM-ANOVA E7389 vs vehicle” value [4] of the same molecule?
Answer: Its value is “Yes 1”.

Question: And the “RM-ANOVA E7389 vs vehicle” value ([5]; SK-UT-1 model (Table 2 conditions), i.v. day 0 and day 7, start tumor volume 260 mm^3, log RTV)?
Answer: Its value is “Yes 1”.

Question: And the “RM-ANOVA E7389 vs vehicle” value ([5]; SK-UT-1 model (Table 3 conditions), i.v. day 0 and day 7, start tumor volume 290 mm^3, log RTV)?
Answer: Its value is “Yes 1”.

Question: What about the “RM-ANOVA E7389 vs vehicle” value [6] of the same molecule?
Answer: Its value is “Yes 1”.

Question: And the “RM-ANOVA E7389 vs vehicle” value ([7]; UM-UC-3 model (Table 2 conditions), i.v. day 0 and day 7, start tumor volume 230 mm^3, log RTV, day 3-day 10)?
Answer: Its value is “Yes 1”.

Question: What about the “RM-ANOVA E7389 vs vehicle” value ([7]; UM-UC-3 model (Table 3 conditions), i.v. day 0 and day 7, start tumor volume 190 mm^3, log RTV, day 3-day 14) of the same molecule?
Answer: The value was “Yes 1”.

Question: And the “RM-ANOVA E7389 vs vehicle” value [8]?
Answer: Its value is “Yes 1”.

Question: What about the “RM-ANOVA E7389 vs vehicle” value ([9]; MES-SA model (Table 2 conditions), i.v. day 0 and day 7, start tumor volume 190 mm^3, log RTV, day 4-day 18) of the same molecule?
Answer: The value was “Yes 1”.

Question: And the “RM-ANOVA E7389 vs vehicle” value ([9]; MES-SA model (Table 3 conditions), i.v. day 0 and day 7, start tumor volume 420 mm^3, log RTV, day 3-day 7)?
Answer: The value was “Yes 1”.

Question: What about the “RM-ANOVA E7389 vs vehicle” value [10] of the same molecule?
Answer: The value was “Yes 1”.

Question: What about the “RM-ANOVA E7389 vs vehicle” value [11] of the same molecule?
Answer: Its value is “Yes 1”.

Question: And the “RM-ANOVA E7389 vs vehicle” value [12]?
Answer: The value was “Yes 1”.

Question: What about the “RM-ANOVA E7389 vs vehicle” value [13] of the same molecule?
Answer: Its value is “Yes 1”.

Question: What about the “RM-ANOVA E7389 vs vehicle” value [14] of the same molecule?
Answer: Its value is “Yes 1”.

Question: What about the “RM-ANOVA E7389 vs vehicle” value [15] of the same molecule?
Answer: The value was “Yes 1”.

Question: What about the “RM-ANOVA E7389 vs vehicle” value [16] of the same molecule?
Answer: The value was “Yes 1”.

Question: What about the “RM-ANOVA E7389 vs vehicle” value [17] of the same molecule?
Answer: Its value is “Yes 1”.

Question: And the “RM-ANOVA E7389 vs vehicle” value [18]?
Answer: The value was “Yes 1”.

Question: What about the “anti-tumor activity compared to the vehicle group” value [19] of the same molecule?
Answer: Its value is “statistically significant”.

From patent US12029724B2, “Method for inhibiting tumor growth” (Eisai R&D Management Co., Ltd., priority 2016, dated 2024)
